Among the data in patent US12415834B2, “GhR-binding peptide and composition comprising same” (priority 2021, dated 2025) are Kd values, retold here.

Starred links: 1 amine or outer side, 2 acyl side, 3 side chain; linkers in the order of their positions; H or OH if unused. Positions of bridges follow the written chain, without caps; N, C: chain ends. Non-standard residues stand in square brackets, D forms with d. Residues, ends and D or L forms follow the SMILES beside them. Groups on a side chain read outwards from the residue. *: point of attachment. X14 = NC(=O)[C@H](CCCCN*)NC(=O)COCCOCCNC(=O)COCCOCCNC(=O)CC[C@H](NC(=O)CC[C@H](NC(=O)CCCCCCCCCCCCCCC(=O)O)C(=O)O)C(=O)O; X11 = NC(=O)[C@H](CCCCN*)NC(=O)CC[C@H](NC(=O)CC[C@H](NC(=O)CCCCCCCCCCCCCCCC(=O)O)C(=O)O)C(=O)O; X3 = NC(=O)[C@H](CCCCN*)NC(=O)CC[C@H](NC(=O)CC[C@H](NC(=O)CCCCCCCCCCCCCCC(=O)O)C(=O)O)C(=O)O; X19 = Cc1ccc(CCCC(=O)N[C@@H](CCC(=O)N[C@@H](CCC(=O)N[C@@H](CCCCN*)C(N)=O)C(=O)O)C(=O)O)cc1; X10 = NC(=O)[C@H](CCCCN*)NC(=O)CC[C@H](NC(=O)CC[C@H](NC(=O)CCCc1ccc(I)cc1)C(=O)O)C(=O)O; X5 = NC(=O)[C@H](CCCCN*)NC(=O)CC[C@H](NC(=O)CC[C@H](NC(=O)CCCCCc1ccccc1)C(=O)O)C(=O)O; Trp(1-CH2CO) = O=C([C@H](Cc1cn(CC(=O)[*:3])c2ccccc12)N[*:1])[*:2]; Trp(5-OMe) = COc1ccc2[nH]cc(C[C@H](N)C(=O)O)c2c1; Butanoyl(4-(4-I-phenyl)) = O=C(CCCc1ccc(I)cc1)*; Trp(5-OH) = N[C@@H](Cc1c[nH]c2ccc(O)cc12)C(=O)O; Phe(4-COOH) = N[C@@H](Cc1ccc(C(=O)O)cc1)C(=O)O; Piperazinyl(4-CH2COOH) = O=C(O)CN1CCN(*)CC1; X7 = O=C(O)CN1CCC(N[*:1])(C(=O)[*:2])CC1; γGlu = O=C(O)[C@H](CCC(=O)[*:2])N[*:1]; hArg = N=C(N)NCCCC[C@H](N)C(=O)O; NMeK = CN[C@@H](CCCCN)C(=O)O; X4 = O=C(CN[*:2])[*:1]; Aib = CC(C)(N)C(=O)O; CO = O=C([*:1])[*:2]

The target in the first assay is T1, Recombinant human GhR-Fc protein (Homo sapiens, UniProt P10912).
T1 construct: purchased R&D Systems
T1 sequence (P10912 with tags, fused parts or gaps limits assumed): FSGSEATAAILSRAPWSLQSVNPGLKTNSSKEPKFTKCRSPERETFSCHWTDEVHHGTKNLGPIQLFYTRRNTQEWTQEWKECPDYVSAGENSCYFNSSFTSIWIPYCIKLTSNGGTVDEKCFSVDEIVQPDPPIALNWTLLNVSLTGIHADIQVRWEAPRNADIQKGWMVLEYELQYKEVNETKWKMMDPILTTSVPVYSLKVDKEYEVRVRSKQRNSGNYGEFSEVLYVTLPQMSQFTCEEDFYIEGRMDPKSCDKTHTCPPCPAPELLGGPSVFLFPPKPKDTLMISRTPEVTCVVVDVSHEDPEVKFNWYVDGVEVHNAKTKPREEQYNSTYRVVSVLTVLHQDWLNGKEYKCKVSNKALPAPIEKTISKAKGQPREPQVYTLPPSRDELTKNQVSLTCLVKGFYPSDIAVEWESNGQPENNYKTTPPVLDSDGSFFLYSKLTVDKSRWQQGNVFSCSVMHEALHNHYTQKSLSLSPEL
The experiment in a line: SPR binding assay (Biacore T200, single-cycle kinetics) of peptides against immobilized human GhR-Fc. Conditions: SPR, hGhR; Table 1 bicyclic peptides; KD calculated from ka and kd; read-out: KD. Put shortly: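 Human GhR-Fc amine-coupled to a CM5 chip at pH 4.0; running buffer HBS-EP with 1% DMSO. Peptides measured by single-cycle kinetics on Biacore T200, with solvent correction and baseline subtraction. KD calculated from fitted ka and kd.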
The term Kd denotes the equilibrium constant for the complex coming apart. `CC(C)[C@@H]1NC(=O)[C@H](C(C)C)NC(=O)[C@@H]2CCCCNC(=O)Cn3cc(c4ccccc43)C[C@H](NC(=O)[C@H](CC(N)=O)NC(=O)[C@H](CO)NC1=O)C(=O)N[C@@H](Cc1ccc(C(=O)O)cc1)C(=O)N[C@@H](CCCCN)C(=O)N[C@@H](Cc1c[nH]c3ccc(O)cc13)C(=O)NC(C)(C)C(=O)N[C@@H](C(C)C)C(=O)N[C@H](C(=O)NCCCC[C@H](NC(=O)CC[C@H](NC(=O)CC[C@H](NC(=O)CCCCCc1ccccc1)C(=O)O)C(=O)O)C(N)=O)CSCC(=O)N[C@@H](Cc1ccc(C(=O)O)cc1)C(=O)N2C` [Compound 16] ({CH2CO}-[Phe(4-COOH)][NMeK]VVSN[Trp(1-CH2CO)][Phe(4-COOH)]K[Trp(5-OH)][Aib]VC-X5; lactam 2-7; thioether N-13): the Kd is 1.93 nM.

Take `CC(C)[C@@H]1NC(=O)[C@H](C(C)C)NC(=O)[C@@H]2CCCCNC(=O)Cn3cc(c4ccccc43)C[C@H](NC(=O)[C@H](CC(N)=O)NC(=O)[C@H](CO)NC1=O)C(=O)N[C@@H](Cc1ccc(O)cc1)C(=O)N[C@@H](CCCCN)C(=O)N[C@@H](Cc1c[nH]c3ccc(O)cc13)C(=O)NC(C)(C)C(=O)N[C@@H](C(C)C)C(=O)N[C@H](C(=O)NCC(N)=O)CSCC(=O)N[C@@H](Cc1ccc(O)cc1)C(=O)N2C` [Compound 1] ({CH2CO}-Y[NMeK]VVSN[Trp(1-CH2CO)]YK[Trp(5-OH)][Aib]VCG-NH2; lactam 2-7; thioether N-13; C-terminus assumed): the Kd was 0.7 nM.

For the compound `CC(C)[C@@H]1NC(=O)[C@H](C(C)C)NC(=O)[C@@H]2CCCCNC(=O)Cn3cc(c4ccccc43)C[C@H](NC(=O)[C@H](CC(N)=O)NC(=O)[C@H](CO)NC1=O)C(=O)N[C@@H](Cc1ccc(C(=O)O)cc1)C(=O)N[C@@H](CCCCN)C(=O)N[C@@H](Cc1c[nH]c3ccc(O)cc13)C(=O)NC(C)(C)C(=O)N[C@@H](C(C)C)C(=O)N[C@H](C(=O)NCCCC[C@H](NC(=O)COCCOCCNC(=O)COCCOCCNC(=O)CC[C@H](NC(=O)CC[C@H](NC(=O)CCCCCCCCCCCCCCC(=O)O)C(=O)O)C(=O)O)C(N)=O)CSCC(=O)N[C@@H](Cc1ccc(C(=O)O)cc1)C(=O)N2C` [Compound 64] ({CH2CO}-[Phe(4-COOH)][NMeK]VVSN[Trp(1-CH2CO)][Phe(4-COOH)]K[Trp(5-OH)][Aib]VC-X14; lactam 2-7; thioether N-13), the Kd is 3.61 nM.

On to `CC(C)[C@@H]1NC(=O)[C@H](C(C)C)NC(=O)[C@@H]2CCCCNC(=O)Cn3cc(c4ccccc43)C[C@H](NC(=O)[C@H](CC(N)=O)NC(=O)[C@H](CO)NC1=O)C(=O)N[C@@H](Cc1ccc(C(=O)O)cc1)C(=O)N[C@@H](CCCCNC(=N)N)C(=O)N[C@@H](Cc1c[nH]c3ccc(O)cc13)C(=O)NC(C)(C)C(=O)N[C@@H](C(C)C)C(=O)N[C@H](C(=O)NCCCC[C@H](NC(=O)CC[C@H](NC(=O)CC[C@H](NC(=O)CCCc1ccc(I)cc1)C(=O)O)C(=O)O)C(N)=O)CSCC(=O)N[C@@H](Cc1ccc(C(=O)O)cc1)C(=O)N2C` [Compound 7] ({CH2CO}-[Phe(4-COOH)][NMeK]VVSN[Trp(1-CH2CO)][Phe(4-COOH)][hArg][Trp(5-OH)][Aib]VC-X10; lactam 2-7; thioether N-13), for which the dissociation constant Kd was 0.96 nM.

For the compound `Cc1ccc(CCCC(=O)N[C@@H](CCC(=O)N[C@@H](CCC(=O)N[C@@H](CCCCNC(=O)[C@@H]2CSCC(=O)N[C@@H](Cc3ccc(C(=O)O)cc3)C(=O)N(C)[C@H]3CCCCNC(=O)Cn4cc(c5ccccc54)C[C@H](NC(=O)[C@H](CC(N)=O)NC(=O)[C@H](CO)NC(=O)[C@H](C(C)C)NC(=O)[C@H](C(C)C)NC3=O)C(=O)N[C@@H](Cc3ccc(C(=O)O)cc3)C(=O)N[C@@H](CCCCN)C(=O)N[C@@H](Cc3c[nH]c4ccc(O)cc34)C(=O)NC(C)(C)C(=O)N[C@@H](C(C)C)C(=O)N2)C(N)=O)C(=O)O)C(=O)O)cc1` [Compound 12] ({CH2CO}-[Phe(4-COOH)][NMeK]VVSN[Trp(1-CH2CO)][Phe(4-COOH)]K[Trp(5-OH)][Aib]VC-X19; lactam 2-7; thioether N-13), the dissociation constant (Kd) is 1.95 nM.

`CC(C)[C@@H]1NC(=O)[C@H](C(C)C)NC(=O)[C@@H]2CCCCNC(=O)CNC(=O)Cn3cc(c4ccccc43)C[C@H](NC(=O)[C@H](CC(N)=O)NC(=O)[C@H](CO)NC1=O)C(=O)N[C@@H](Cc1ccc(O)cc1)C(=O)N[C@@H](CCCCN)C(=O)N[C@@H](Cc1c[nH]c3ccc(O)cc13)C(=O)NC(C)(C)C(=O)N[C@@H](C(C)C)C(=O)N[C@H](C(=O)NCC(N)=O)CSCC(=O)N[C@@H](Cc1ccc(O)cc1)C(=O)N2C` [Compound 2] ({CH2CO}-Y[NMeK]VVSN[Trp(1-CH2CO)]YK[Trp(5-OH)][Aib]VCG-NH2; linker 2-7 via X4; thioether N-13; C-terminus assumed): the Kd is 1.22 nM.

`CC(C)[C@@H]1NC(=O)[C@H](C(C)C)NC(=O)[C@@H]2CCCCNC(=O)Cn3cc(c4ccccc43)C[C@H](NC(=O)[C@H](CC(N)=O)NC(=O)[C@H](CO)NC1=O)C(=O)N[C@@H](Cc1ccc(O)cc1)C(=O)N[C@@H](CCCCN)C(=O)N[C@@H](Cc1c[nH]c3ccc(O)cc13)C(=O)NC1(CCN(CC(=O)O)CC1)C(=O)N[C@@H](C(C)C)C(=O)N[C@H](C(=O)NCCCC[C@H](NC(=O)CC[C@H](NC(=O)CC[C@H](NC(=O)CCCCCCCCCCCCCCC(=O)O)C(=O)O)C(=O)O)C(N)=O)CSCC(=O)N[C@@H](Cc1ccc(C(=O)O)cc1)C(=O)N2C` [Compound 18] ({CH2CO}-[Phe(4-COOH)][NMeK]VVSN[Trp(1-CH2CO)]YK[Trp(5-OH)][X7]VC-X3; lactam 2-7; thioether N-13): the Kd was 2.4 nM.

Regarding `CC(C)[C@@H]1NC(=O)[C@H](C(C)C)NC(=O)[C@@H]2CCCCNC(=O)Cn3cc(c4ccccc43)C[C@H](NC(=O)[C@H](CC(N)=O)NC(=O)[C@H](CO)NC1=O)C(=O)N[C@@H](Cc1ccc(O)cc1)C(=O)N[C@@H](CCCCN)C(=O)N[C@@H](Cc1c[nH]c3ccc(O)cc13)C(=O)NC(C)(C)C(=O)N[C@@H](C(C)C)C(=O)N[C@H](C(=O)NCCCC[C@H](NC(=O)CC[C@H](NC(=O)CC[C@H](NC(=O)CCCCCCCCCCCCCCC(=O)O)C(=O)O)C(=O)O)C(N)=O)CSCC(=O)N[C@@H](Cc1ccc(C(=O)O)cc1)C(=O)N2C` [Compound 19] ({CH2CO}-[Phe(4-COOH)][NMeK]VVSN[Trp(1-CH2CO)]YK[Trp(5-OH)][Aib]VC-X3; lactam 2-7; thioether N-13), the Kd was 1.93 nM.

`CC(C)[C@@H]1NC(=O)[C@H](C(C)C)NC(=O)[C@@H]2CCCCNC(=O)Cn3cc(c4ccccc43)C[C@H](NC(=O)[C@H](CC(N)=O)NC(=O)[C@H](CO)NC1=O)C(=O)N[C@@H](Cc1ccc(C(=O)O)cc1)C(=O)N[C@@H](CCCCN)C(=O)N[C@@H](Cc1c[nH]c3ccc(O)cc13)C(=O)NC(C)(C)C(=O)N[C@@H](C(C)C)C(=O)N[C@H](C(=O)NCCCC[C@H](NC(=O)CC[C@H](NC(=O)CC[C@H](NC(=O)CCCCCCCCCCCCCCCC(=O)O)C(=O)O)C(=O)O)C(N)=O)CSCC(=O)N[C@@H](Cc1ccc(C(=O)O)cc1)C(=O)N2C` [Compound 61] ({CH2CO}-[Phe(4-COOH)][NMeK]VVSN[Trp(1-CH2CO)][Phe(4-COOH)]K[Trp(5-OH)][Aib]VC-X11; lactam 2-7; thioether N-13): the dissociation constant Kd was 2.53 nM.

For the compound `CC(C)[C@@H]1NC(=O)[C@H](C(C)C)NC(=O)[C@@H]2CCCCNC(=O)Cn3cc(c4ccccc43)C[C@H](NC(=O)[C@H](CC(N)=O)NC(=O)[C@H](CO)NC1=O)C(=O)N[C@@H](Cc1ccc(C(=O)O)cc1)C(=O)N[C@@H](CCCCN)C(=O)N[C@@H](Cc1c[nH]c3ccc(O)cc13)C(=O)NC(C)(C)C(=O)N[C@@H](C(C)C)C(=O)N[C@H](C(=O)NCCCC[C@H](NC(=O)CC[C@H](NC(=O)CC[C@H](NC(=O)CCCc1ccc(I)cc1)C(=O)O)C(=O)O)C(N)=O)CSCC(=O)N[C@@H](Cc1ccc(O)cc1)C(=O)N2C` [Compound 26] ({CH2CO}-Y[NMeK]VVSN[Trp(1-CH2CO)][Phe(4-COOH)]K[Trp(5-OH)][Aib]VC-X10; lactam 2-7; thioether N-13), the Kd was 1.59 nM.

Staying with this assay, now noted: SPR, hGhR; Table 2 monocyclic peptides; KD calculated from ka and kd; read-out: KD.
In the case of `COc1ccc2[nH]cc(C[C@@H]3NC(=O)[C@H](CC(N)=O)NC(=O)[C@H](CO)NC(=O)[C@H](C(C)C)NC(=O)[C@H](C(C)C)NC(=O)[C@H](CCCCNC(=O)CC[C@H](NC(=O)CC[C@H](NC(=O)CCCc4ccc(I)cc4)C(=O)O)C(=O)O)N(C)C(=O)[C@H](Cc4ccc(O)cc4)NC(=O)CSC[C@@H](C(N)=O)NC(=O)[C@H](C(C)C)NC(=O)C(C)(C)NC(=O)[C@H](Cc4c[nH]c5ccc(O)cc45)NC(=O)[C@H](CCCCNC(=O)N4CCN(CC(=O)O)CC4)NC(=O)[C@H](Cc4ccc(C(=O)O)cc4)NC3=O)c2c1` [Compound 47] ({CH2CO}-Y[NMeK]([γGlu-γGlu-Butanoyl(4-(4-I-phenyl))])VVSN[Trp(5-OMe)][Phe(4-COOH)]K([CO-Piperazinyl(4-CH2COOH)])[Trp(5-OH)][Aib]VC-NH2; thioether N-13), the Kd was 7.38 nM.

Turning to `COc1ccc2[nH]cc(C[C@@H]3NC(=O)[C@H](CC(N)=O)NC(=O)[C@H](CO)NC(=O)[C@H](C(C)C)NC(=O)[C@H](C(C)C)NC(=O)[C@H](CCCCNC(=O)CC[C@H](NC(=O)CCCc4ccc(I)cc4)C(=O)O)N(C)C(=O)[C@H](Cc4ccc(C(=O)O)cc4)NC(=O)CSC[C@@H](C(N)=O)NC(=O)[C@H](C(C)C)NC(=O)C(C)(C)NC(=O)[C@H](Cc4c[nH]c5ccc(O)cc45)NC(=O)[C@H](CCCCN)NC(=O)[C@H](Cc4ccc(C(=O)O)cc4)NC3=O)c2c1` [Compound 39] ({CH2CO}-[Phe(4-COOH)][NMeK]([γGlu-Butanoyl(4-(4-I-phenyl))])VVSN[Trp(5-OMe)][Phe(4-COOH)]K[Trp(5-OH)][Aib]VC-NH2; thioether N-13), the Kd is 2.19 nM.
